Assay results reported in US10947242B2, “[1,2,4]triazolo[1,5and#8208;A]pyrimidine compounds as PDE2 inhibitors” (Janssen Pharmaceutica NV, priority 2016, dated 2021).
Values joined by “and” are separate entries in the source; they are usually repeats but may differ in a detail not shown here. Equal values may be shown once. Read-outs that look alike come from different tables or passages of the source.

Assays:
[1] = target: T1, Human recombinant PDE2A (hPDE2A) (Homo sapiens, UniProt O00408); assay: In vitro assay PDE2A (SPA, 3H-cGMP hydrolysis); format: biochemical; conditions: for Emax: read-out: hPDE2A Emax
T1 construct: His tag (inferred from metal chelate purification); made in house; host or cells: Sf9 insect cells (baculovirus)

[2] = target: T2, Human recombinant PDE3A (hPDE3A) (Homo sapiens, UniProt Q14432); assay: In vitro assay PDE3A (SPA, 3H-cAMP hydrolysis); format: biochemical; conditions: for IC50: hPDE3B pIC50, read-out: pIC50 (converted); for Emax: read-out: hPDE3B Emax, read-out: Emax;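 on all read-outs here: the method names PDE3A and the table heading PDE3B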
T2 construct: purchased Scottish Biomedical; host or cells: Sf9 insect cells
Procedure, shortened: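 Radiometric SPA measuring [3H]-cAMP hydrolysis (0.4 μM cAMP, 2.4 μCi/ml) over 60 min at room temperature, in Tris pH 7.8 buffer with MgCl2 and EGTA, 1% DMSO. Enzyme: recombinant human brain PDE3A expressed in Sf9 cells, used as partially purified lysate. Counts compared with enzyme-free blanks and vehicle controls.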

[3] = target: T3, Rat recombinant PDE10A (rPDE10A2) (Rattus norvegicus, UniProt Q9QYJ6); assay: In vitro assay PDE10A, rat clone (SPA, 3H-cAMP hydrolysis); format: biochemical; conditions: for IC50: read-out: rPDE10A2 pIC50 (converted)
T3 construct: His tag (inferred from metal chelate purification); made in house; host or cells: Sf9 insect cells (baculovirus)
T3 sequence (Q9QYJ6 1-794): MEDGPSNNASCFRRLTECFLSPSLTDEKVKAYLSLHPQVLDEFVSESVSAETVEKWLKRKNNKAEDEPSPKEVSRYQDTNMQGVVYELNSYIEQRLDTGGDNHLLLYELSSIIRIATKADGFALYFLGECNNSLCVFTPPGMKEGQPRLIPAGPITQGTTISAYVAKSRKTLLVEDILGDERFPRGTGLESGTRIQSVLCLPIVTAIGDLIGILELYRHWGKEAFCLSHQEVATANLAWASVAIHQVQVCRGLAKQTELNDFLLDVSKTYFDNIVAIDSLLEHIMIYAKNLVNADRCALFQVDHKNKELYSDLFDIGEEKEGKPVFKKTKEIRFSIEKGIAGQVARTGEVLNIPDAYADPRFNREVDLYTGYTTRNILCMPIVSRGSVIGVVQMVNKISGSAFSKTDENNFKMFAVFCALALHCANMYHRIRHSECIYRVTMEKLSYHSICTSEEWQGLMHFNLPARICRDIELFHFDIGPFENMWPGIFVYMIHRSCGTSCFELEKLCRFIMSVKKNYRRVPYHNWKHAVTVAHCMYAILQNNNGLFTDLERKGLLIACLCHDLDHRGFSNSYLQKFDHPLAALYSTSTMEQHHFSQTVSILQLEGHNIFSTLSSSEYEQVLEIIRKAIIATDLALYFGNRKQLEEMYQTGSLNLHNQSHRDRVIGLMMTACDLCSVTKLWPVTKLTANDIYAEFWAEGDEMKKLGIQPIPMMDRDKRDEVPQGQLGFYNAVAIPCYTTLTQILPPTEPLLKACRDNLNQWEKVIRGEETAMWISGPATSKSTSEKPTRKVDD
Procedure: Rat recombinant PDE10A (rPDE10A2) was expressed in Sf9 cells using a recombinant rPDE10A baculovirus construct. Cells were harvested after 48 h of infection and the rPDE10A protein was purified by metal chelate chromatography on Ni-sepharose 6FF. Tested compounds were dissolved and diluted in 100% DMSO to a concentration 100 fold of the final concentration in the assay. Human recombinant PDE10A ([…]) was expressed in Sf9 cells using a recombinant hPDE10A baculovirus that was made and amplified in house. Cells were harvested after 72 h of infection and the hPDE10A protein was purified by metal chelate chromatography on Ni-sepharose. Compound dilutions (0.4 μl) were added in 384 well plates to 20 μl of incubation buffer (50 mM Tris pH 7.8, 8.3 mM MgCl2, 1.7 mM EGTA). 10 μl of rPDE10A or hPDE10A enzyme in incubation buffer was added and the reaction was started by addition of 10 μl substrate to a final concentration of 60 nM cAMP and 0.008 μCi ^3H-cAMP. The reaction was incubated for 60 minutes at room temperature. After incubation, the reaction was stopped with 20 μl of stop solution consisting of 17.8 mg/ml PDE SPA (scintillation proximity assay) beads. After sedimentation of the beads during 30 minutes the radioactivity was measured in a Perkin Elmer Topcount scintillation counter and results were expressed as cpm. For blanc values the enzyme was omitted from the reaction and replaced by incubation buffer. Control values were obtained by addition of a final concentration of 1% DMSO instead of compound. A best fit curve is fitted by a minimum sum of squares method to the plot of % of control value subtracted with blanc value versus compound concentration and the half maximal inhibitory concentration (IC50) value is derived from this curve.

[4] = target: T4, Human recombinant PDE10A (hPDE10A) (Homo sapiens, UniProt Q9Y233); assay: In vitro assay PDE10A, human clone (SPA, 3H-cAMP hydrolysis); format: biochemical; conditions: human clone (h), default; for Emax: read-out: hPDE10A2 Emax; for IC50: read-out: hPDE10A2 pIC50 (converted)
T4 construct: His tag (inferred from metal chelate purification); made in house; host or cells: Sf9 insect cells (baculovirus)
Procedure, shortened: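 Hydrolysis of 3H-cAMP (60 nM cAMP, 0.008 μCi tracer) proceeded for 60 min at room temperature, with the product detected by SPA bead scintillation counting. The enzyme was hPDE10A from baculovirus-infected Sf9 cells in Tris pH 7.8 buffer with MgCl2 and EGTA, and compounds were at 1% DMSO final. Blanks lacked enzyme.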

PDE2A = target: T5, PDE2A (Rattus norvegicus, UniProt Q01062); assay: PDE2 occupancy by test compounds, ex-vivo autoradiography with [3H]B-17a; format: in vivo, Male Wistar rats; conditions: for receptor occupancy at 10 mg/kg: percentage receptor occupancy, ex-vivo autoradiography, striatum
T5 construct: Twenty μm-thick striatal sections were cut; from tissue; host or cells: rat brain, striatal sections
T5 sequence (Q01062 1-928): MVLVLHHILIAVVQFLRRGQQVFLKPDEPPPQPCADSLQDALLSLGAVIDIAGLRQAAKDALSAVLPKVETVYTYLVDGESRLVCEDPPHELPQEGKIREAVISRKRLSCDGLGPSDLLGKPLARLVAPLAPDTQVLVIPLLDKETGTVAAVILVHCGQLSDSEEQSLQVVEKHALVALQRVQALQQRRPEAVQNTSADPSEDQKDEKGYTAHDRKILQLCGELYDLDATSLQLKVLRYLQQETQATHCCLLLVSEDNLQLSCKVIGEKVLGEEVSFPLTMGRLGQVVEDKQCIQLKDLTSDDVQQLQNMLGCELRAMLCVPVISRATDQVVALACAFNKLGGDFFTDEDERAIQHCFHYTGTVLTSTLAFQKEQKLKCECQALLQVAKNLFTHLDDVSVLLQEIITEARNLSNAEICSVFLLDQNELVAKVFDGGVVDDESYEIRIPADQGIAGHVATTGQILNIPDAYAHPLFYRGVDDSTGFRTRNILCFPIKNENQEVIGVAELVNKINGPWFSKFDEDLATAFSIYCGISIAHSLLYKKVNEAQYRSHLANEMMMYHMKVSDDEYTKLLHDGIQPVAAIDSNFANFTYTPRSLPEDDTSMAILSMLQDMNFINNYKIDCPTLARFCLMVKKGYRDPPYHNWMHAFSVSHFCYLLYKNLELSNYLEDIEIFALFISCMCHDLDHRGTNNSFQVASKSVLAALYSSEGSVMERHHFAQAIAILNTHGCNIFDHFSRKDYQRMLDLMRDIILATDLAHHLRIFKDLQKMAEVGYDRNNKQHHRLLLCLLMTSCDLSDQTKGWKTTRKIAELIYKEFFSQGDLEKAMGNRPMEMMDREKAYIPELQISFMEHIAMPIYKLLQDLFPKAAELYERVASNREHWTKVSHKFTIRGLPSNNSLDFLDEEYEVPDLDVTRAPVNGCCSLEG

[5] = human recombinant PDE2A, 10 μM cGMP substrate, read-out: hPDE2A pIC50 (converted)
[6] = read-out: hPDE2A pIC50 (converted)

T1 sequence (O00408 whole entry): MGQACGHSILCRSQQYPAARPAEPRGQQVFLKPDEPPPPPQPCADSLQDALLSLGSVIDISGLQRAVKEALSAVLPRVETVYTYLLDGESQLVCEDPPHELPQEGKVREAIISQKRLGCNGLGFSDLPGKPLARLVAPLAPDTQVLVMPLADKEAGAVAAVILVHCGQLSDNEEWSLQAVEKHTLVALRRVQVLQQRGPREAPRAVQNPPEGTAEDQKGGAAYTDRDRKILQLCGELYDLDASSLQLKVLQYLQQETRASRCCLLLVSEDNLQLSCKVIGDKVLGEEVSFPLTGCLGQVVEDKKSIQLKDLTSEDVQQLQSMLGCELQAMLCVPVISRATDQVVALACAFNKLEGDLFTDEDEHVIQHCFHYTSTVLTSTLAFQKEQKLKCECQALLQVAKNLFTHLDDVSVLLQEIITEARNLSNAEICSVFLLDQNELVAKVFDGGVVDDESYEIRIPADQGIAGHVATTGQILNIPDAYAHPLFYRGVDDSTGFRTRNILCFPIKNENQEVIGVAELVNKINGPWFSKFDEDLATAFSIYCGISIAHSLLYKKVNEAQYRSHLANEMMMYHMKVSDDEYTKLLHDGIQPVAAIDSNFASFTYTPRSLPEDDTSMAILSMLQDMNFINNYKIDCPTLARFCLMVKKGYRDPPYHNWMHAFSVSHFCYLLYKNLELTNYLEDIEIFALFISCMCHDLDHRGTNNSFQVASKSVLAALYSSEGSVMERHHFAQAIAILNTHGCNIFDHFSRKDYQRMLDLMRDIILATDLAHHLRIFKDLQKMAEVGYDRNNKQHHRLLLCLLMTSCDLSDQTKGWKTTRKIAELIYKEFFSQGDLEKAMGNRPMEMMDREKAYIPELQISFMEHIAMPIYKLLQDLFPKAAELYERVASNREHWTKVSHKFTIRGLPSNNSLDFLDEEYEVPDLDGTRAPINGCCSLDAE
T4 sequence (Q9Y233 267-1055): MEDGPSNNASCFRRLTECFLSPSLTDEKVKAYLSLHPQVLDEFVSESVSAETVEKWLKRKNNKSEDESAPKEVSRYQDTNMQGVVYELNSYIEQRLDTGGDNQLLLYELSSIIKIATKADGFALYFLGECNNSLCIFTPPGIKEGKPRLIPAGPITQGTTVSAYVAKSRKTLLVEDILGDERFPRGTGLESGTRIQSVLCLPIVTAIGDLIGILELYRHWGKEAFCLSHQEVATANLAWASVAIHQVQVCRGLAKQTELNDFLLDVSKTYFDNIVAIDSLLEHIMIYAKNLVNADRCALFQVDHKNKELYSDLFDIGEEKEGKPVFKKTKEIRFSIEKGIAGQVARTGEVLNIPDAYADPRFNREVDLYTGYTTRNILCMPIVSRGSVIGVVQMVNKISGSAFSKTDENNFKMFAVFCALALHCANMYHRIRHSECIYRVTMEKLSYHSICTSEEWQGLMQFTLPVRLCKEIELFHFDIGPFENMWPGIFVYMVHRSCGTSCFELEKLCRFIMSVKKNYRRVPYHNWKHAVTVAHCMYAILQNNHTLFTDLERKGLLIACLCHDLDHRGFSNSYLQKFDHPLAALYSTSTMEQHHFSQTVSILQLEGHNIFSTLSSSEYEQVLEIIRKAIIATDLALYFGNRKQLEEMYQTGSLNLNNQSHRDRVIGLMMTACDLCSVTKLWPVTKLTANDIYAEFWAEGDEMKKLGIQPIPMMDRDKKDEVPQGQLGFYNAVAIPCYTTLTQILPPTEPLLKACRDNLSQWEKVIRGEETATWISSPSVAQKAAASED
T2 sequence (Q14432 whole entry): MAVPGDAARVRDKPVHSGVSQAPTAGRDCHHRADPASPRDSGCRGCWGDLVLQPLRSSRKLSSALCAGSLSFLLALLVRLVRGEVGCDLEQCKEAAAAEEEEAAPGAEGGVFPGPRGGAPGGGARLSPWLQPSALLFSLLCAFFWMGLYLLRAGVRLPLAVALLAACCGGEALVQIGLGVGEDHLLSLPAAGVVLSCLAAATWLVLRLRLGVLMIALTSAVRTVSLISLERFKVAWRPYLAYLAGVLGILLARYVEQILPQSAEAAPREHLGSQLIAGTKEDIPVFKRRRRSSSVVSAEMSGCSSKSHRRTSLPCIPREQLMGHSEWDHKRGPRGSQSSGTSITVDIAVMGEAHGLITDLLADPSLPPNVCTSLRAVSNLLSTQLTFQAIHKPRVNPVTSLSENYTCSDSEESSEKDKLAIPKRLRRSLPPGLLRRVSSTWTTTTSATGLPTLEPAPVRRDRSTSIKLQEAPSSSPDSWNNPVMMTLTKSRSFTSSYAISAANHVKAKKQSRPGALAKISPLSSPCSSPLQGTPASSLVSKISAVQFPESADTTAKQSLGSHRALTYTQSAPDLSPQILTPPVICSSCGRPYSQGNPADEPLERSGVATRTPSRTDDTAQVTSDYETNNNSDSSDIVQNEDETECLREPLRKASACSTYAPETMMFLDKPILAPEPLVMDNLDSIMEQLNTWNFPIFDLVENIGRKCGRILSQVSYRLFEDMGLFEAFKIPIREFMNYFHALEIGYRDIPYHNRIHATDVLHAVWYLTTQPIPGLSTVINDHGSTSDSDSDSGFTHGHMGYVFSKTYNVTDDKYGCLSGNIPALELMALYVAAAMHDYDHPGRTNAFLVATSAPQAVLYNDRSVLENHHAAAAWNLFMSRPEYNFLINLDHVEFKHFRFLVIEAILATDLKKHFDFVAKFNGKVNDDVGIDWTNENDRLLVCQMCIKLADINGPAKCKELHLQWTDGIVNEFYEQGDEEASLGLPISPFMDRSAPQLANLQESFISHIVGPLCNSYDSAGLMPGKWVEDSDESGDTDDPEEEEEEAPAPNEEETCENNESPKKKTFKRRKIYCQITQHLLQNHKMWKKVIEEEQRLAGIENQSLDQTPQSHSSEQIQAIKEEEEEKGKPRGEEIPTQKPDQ

| Structure (SMILES) | IC50 [1, 5] | Emax ([1]; human recombinant PDE2A) [%] | Emax [1] [%] | IC50 [1, 6] [nM] | IC50 [2] [nM] | Emax [2] [%] | Emax ([3]; rat clone (r)) [%] | IC50 ([3]; rat clone (r)) [nM] | rPDE10A2 pIC50 ([3]; rat clone, indicated as (r)) | melting point [°C] | Emax [4] [%] | IC50 [4] | receptor occupancy at 10 mg/kg (PDE2A; po, route PO (oral)) [%] | further results |
| --- | --- | --- | --- | --- | --- | --- | --- | --- | --- | --- | --- | --- | --- | --- |
| CC(=O)N1CCc2cc(C(=O)N3CCC[C@@](C)(c4cc(C(F)F)nc5ncnn45)C3)ccc21 (single isomer, unassigned) [Compound 203] | 955 nM | 48 | 48 | 955 | > 10000 | 41 | 14 | > 10000 | <5 (r) | 204.03 | – | – | – | – |
| C[C@@H]1CCN(C(=O)c2ccc3nccn3c2)C[C@H]1c1cc(C(F)F)nc2ncnn12 [Compound 40] | 0.355 nM | 101 | 101 | 0.355 | 7080 | 58 | – | – | – | 181.11 | 97 | 123 nM | – | rPDE10A2 pIC50 ([3]; rat clone (r)): 7.1 (r); Emax ([3]; rat clone, indicated as (r)): 96%; IC50 ([3]; rat clone, indicated as (r)): 79.4 nM |
| CC1(c2ccnc3ncnn23)CCCN(C(=O)c2ccc3occc3c2)C1 (stereo not drawn) [Compound 202] | 2690 nM | 30 | 30 | 2690 | > 10000 | 18 | 4 | > 10000 | <5 (r) | 78.65 | 38 | > 10000 nM | – | – |
| CC1(c2cc(C(F)F)nc3ncnn23)CCCN(C(=O)c2ccc3occc3c2)C1 (stereo not drawn) [Compound 201] | 646 nM | 61 | 61 | 646 | > 10000 | 24 | -1 | 3090 | 5.51 (r) | 140.14 | – | – | – | – |
| C[C@@H]1CCN(C(=O)c2ccc3occc3c2)C[C@H]1c1cc(C(F)F)nc2ncnn12 [Compound 97] | – | – | – | – | – | – | 99 | 34.7 | 7.46 (r) | – | 101 | 53.7 nM | – | – |
| Cc1cc(C#N)cc(C(=O)N2CC[C@@H](C)[C@H](c3cc(C(F)F)nc4ncnn34)C2)c1 [Compound 131] | – | – | 98 | – | 7760 | 61 | – | – | – | 224.39 | 99 | 40.7 nM | 0 | IC50 ([1]; hPDE2A pIC50): 2.45 nM; IC50 ([1]; hPDE2A pIC50, human recombinant PDE2A, 10 μM cGMP substrate): 2.45 nM |
| Cc1cc(C(=O)N2CC[C@@H](C)[C@H](c3cc(C(F)F)nc4ncnn34)C2)cc(C2CC2)n1 [Compound 93] | 0.398 nM | 101 | 101 | 0.457 | 2570 | 84 | – | – | – | 201.12 | 99 | 36.3 nM and 39.8 nM | 85 | ED50 (PDE2A; route PO (oral), drug dose producing 50% receptor occupancy, read-out: PDE Occupancy ED50): 7.8 mg/kg |
| COc1cc(C(=O)N2CC[C@@H](C)[C@H](c3cc(C(F)F)nc4ncnn34)C2)cc(C(C)C)n1 [Compound 122] | 1.86 nM | 100 | 100 | 1.86 | 1820 | 86 | – | – | – | 160.2 | 100 | 74.1 nM | 0 | – |
| C[C@@H]1CCN(C(=O)c2ccc3ocnc3c2)C[C@H]1c1cc(C(F)F)nc2ncnn12 [Compound 116] | 1.15 nM and 1.12 nM | 100 | 101 | 1.12 | 2190 | 82 | – | – | – | 192.09 | 99 | 9.77 nM and 79.4 nM | – | hPDE10A2 Emax [4]: 98; receptor occupancy at 10 mg/kg (PDE2A; sc, route SC (subcutaneous)): 3% |
